# Experimental data taken from ChEMBL document CHEMBL3272278, “Electronic factors in the structure-activity relationship of some 1,4-benzodiazepin-2-ones” (1977).
# Active and inactive are the calls of the source. No cut-off for these calls is given here.
# How the values were obtained:
# [1] = species: Felis catus; experiment: Sedative activity in cat; type: functional, organism-based
# [2] = species: Mus musculus; experiment: Sedative activity in mouse; type: functional
# [3] = species: Mus musculus; experiment: Muscle relaxant activity in mouse; type: functional
# [4] = species: Mus musculus; experiment: Taming activity in mouse assessed as suppression of electrical current-induced aggressive behavior by foot-shock test; type: functional
# [5] = species: Felis catus; experiment: Muscle relaxant activity in cat suspended by scruff of neck assessed as relaxation of body and hind legs; type: functional
# [6] = species: Mus musculus; experiment: Anticonvulsion activity in mouse assessed as protection against pentylenetetrazole-induced convulsion; type: functional
SMILES,Activity [1],log(1/ED50) [2],log(1/ED50) [3],log(1/MED) [4],Activity [5],Activity [6],Activity [2],Activity [3],Activity [4],log(1/ED50) [6],log(1/MED) [5]
O=C1CN=C(c2ccccc2)c2ccccc2N1 [RO-052921],inactive,0.1968,0.1968,0.3729,inactive,inactive,–,–,–,–,–
O=C1CN=C(c2ccc(F)cc2)c2cc(Cl)ccc2N1,inactive,–,–,–,inactive,inactive,inactive,inactive,inactive,–,–
O=C1CN=C(c2ccc(Cl)cc2Cl)c2cc(Cl)ccc2N1,inactive,–,–,–,inactive,–,inactive,inactive,inactive,-0.3724,–
CN1C(=O)CN=C(c2ccccc2F)c2cc(Cl)ccc21 [FLUDIAZEPAM],–,1.4807,1.4807,1.7817,–,–,–,–,–,2.8766,3.7817
CSc1ccc2c(c1)C(c1ccccc1)=NCC(=O)N2,–,0.2073,0.2073,1.1493,–,–,–,–,–,1.1493,2.1493
O=C1CN=C(c2ccccc2)c2cc([N+](=O)[O-])ccc2N1 [NITRAZEPAM],–,1.2726,1.2726,1.7497,–,–,–,–,–,2.7497,3.4487
CN1C(=O)CN=C(c2ccccc2F)c2ccccc21 [RO-054520],–,0.1271,0.1271,0.8261,–,–,–,–,–,1.525,2.4281
